Reference: US20140363383A1, “AEROSOL FORMULATION FOR COPD” (Chiesi Farmaceutici S.p.A, priority 2009, published 2014)

Experiment: Compatibility with other active ingredients, especially formoterol
Type: physicochemical
Details: versus glycopyrronium bromide

C[N+]1(C)CCC(OC(=O)C(O)(c2ccccc2)C2CCCC2)C1.[Cl-] (stereo not shown) [glycopyrronium chloride, 3-[(cyclopentylhydroxyphenylacetyl)oxy]-1,1-dimethylpyrrolidinium chloride]
compatibility with other active ingredients: better compatibility with other active ingredients
